One assay has as its system PTEN. The assay is described as follows: Suppression of TNF-α-stimulated increase in PTEN phosphorylation level, Western blot in SK-N-SH cells. The assay is classed as cell-based, human. The note with it: cilostazol 1, 10 and 100 μM given 3 hours before TNF-α (50 ng/ml, one hour). As for the experimental part: (§1) Cell cultures: SK-N-SH (KCLB 30011, human brain neuroblastoma) cells were cultured in Eagle's minimum essential medium (MEM) with 2 mM L-glutamine and 1.0 mM sodium pyruvate supplemented with 10% heat-inactivated fetal bovine serum. Cells were grown to confluence at 37° C. in 5% CO2 and used for experiments at no greater than passage 20.
Preparation of TNF-α solution: TNF-α (Upstate Biotechnology, Inc., Lake Placid, N.Y.) was dissolved in the phosphate buffered saline as a 10 μg/ml stock solution.
Western blot analysis: The confluent cells received MEM medium with 1% FBS plus cilostazol 3 hours prior to stimulation with TNF-α and then were exposed to TNF-α for one hour.
The cells were lysed in lysis buffer containing 50 mM Tris-Cl (pH 8.0), 150 mM NaCl, 0.02% sodium azide, 100 μg/ml phenylmethylsulfonyl fluoride, 1 μg/ml aprotinin and 1% Triton X-100. […] The signals of the bands were quantified using a GS-710 Calibrated imaging Densitomerter (Bio-Rad Laboratories, Hercules, Calif.). The results were expressed as a relative density. […]
Statistical analysis: The results are expressed as means±SEM. Statistical differences between groups were determined by Student's t-test. p<0.05 was considered to be significant.

The next assay concerns the target T1, Maxi-K channels (Homo sapiens, UniProt Q12791).
T1 construct: endogenous in cells; host or cells: SK-N-SH (KCLB 30011) human neuroblastoma cells
The assay can be described thus: Whole-cell K+ current recording (patch clamp) in SK-N-SH cells. In kind it is cell-based. As for the experimental part: as §1
Recording of the whole-cell K^+ current: The experiments were performed in a small bath (0.5 ml) mounted on the stage of an inverted microscope (Nikon model TE300, Tokyo, Japan) perfused continuously at a flow rate of 1 ml/min. Using the whole-cell configuration of the patch clamp technique, the K^+ currents were recorded at room temperature (20˜22° C.) with an Axopatch-200B patch clamp amplifier (Axon Instruments, Foster City, Calif.). Currents were sampled at 1 to 10 kHz after anti-alias filtering at 0.5 to 5 kHz. Data acquisition and command potentials were controlled by pClamp 6.0.3 software (Axon Instruments, Foster City, Calif.). To ensure the voltage clamp quality, electrode resistance was kept below 3 MΩ. Junction potentials were zeroed with the electrode in the standard bath solution. Gigaohm seal formation was achieved by suction and, after establishing the whole cell configuration, the capacitive transients elicited by symmetrical 10 mV voltage clamp steps from −80 mV were recorded at 50 kHz for calculation of cell capacitance. The normal bath solution for the whole-cell recordings was: NaCl 130 mM, KCl 5 mM, MgCl2 1.2 mM, CaCl2 1.8 mM, HEPES 10 mM, glucose 5.2 mM and the pH was adjusted to 7.4 with NaOH. Pipettes were filled with KCl 140 mM, MgCl2 0.5 mM, CaCl2 0.1 mM, ethylenebis(oxonitrilo) tetra-acetic acid (EGTA) 0.09 mM, HEPES 10 mM, glucose 10 mM and the pH was adjusted to 7.4 with KOH.
After establishment of whole-cell recordings and collecting control recordings for approximately 5 minutes until the current elicited by depolarization stabilized, cilostazol was applied to the bath. In the experiments, using glibenclamide or iberiotoxin, cilostazol was applied to the bath about 20 minutes after administering glibenclamide or iberiotoxin.

T1 sequence (Q12791 whole entry): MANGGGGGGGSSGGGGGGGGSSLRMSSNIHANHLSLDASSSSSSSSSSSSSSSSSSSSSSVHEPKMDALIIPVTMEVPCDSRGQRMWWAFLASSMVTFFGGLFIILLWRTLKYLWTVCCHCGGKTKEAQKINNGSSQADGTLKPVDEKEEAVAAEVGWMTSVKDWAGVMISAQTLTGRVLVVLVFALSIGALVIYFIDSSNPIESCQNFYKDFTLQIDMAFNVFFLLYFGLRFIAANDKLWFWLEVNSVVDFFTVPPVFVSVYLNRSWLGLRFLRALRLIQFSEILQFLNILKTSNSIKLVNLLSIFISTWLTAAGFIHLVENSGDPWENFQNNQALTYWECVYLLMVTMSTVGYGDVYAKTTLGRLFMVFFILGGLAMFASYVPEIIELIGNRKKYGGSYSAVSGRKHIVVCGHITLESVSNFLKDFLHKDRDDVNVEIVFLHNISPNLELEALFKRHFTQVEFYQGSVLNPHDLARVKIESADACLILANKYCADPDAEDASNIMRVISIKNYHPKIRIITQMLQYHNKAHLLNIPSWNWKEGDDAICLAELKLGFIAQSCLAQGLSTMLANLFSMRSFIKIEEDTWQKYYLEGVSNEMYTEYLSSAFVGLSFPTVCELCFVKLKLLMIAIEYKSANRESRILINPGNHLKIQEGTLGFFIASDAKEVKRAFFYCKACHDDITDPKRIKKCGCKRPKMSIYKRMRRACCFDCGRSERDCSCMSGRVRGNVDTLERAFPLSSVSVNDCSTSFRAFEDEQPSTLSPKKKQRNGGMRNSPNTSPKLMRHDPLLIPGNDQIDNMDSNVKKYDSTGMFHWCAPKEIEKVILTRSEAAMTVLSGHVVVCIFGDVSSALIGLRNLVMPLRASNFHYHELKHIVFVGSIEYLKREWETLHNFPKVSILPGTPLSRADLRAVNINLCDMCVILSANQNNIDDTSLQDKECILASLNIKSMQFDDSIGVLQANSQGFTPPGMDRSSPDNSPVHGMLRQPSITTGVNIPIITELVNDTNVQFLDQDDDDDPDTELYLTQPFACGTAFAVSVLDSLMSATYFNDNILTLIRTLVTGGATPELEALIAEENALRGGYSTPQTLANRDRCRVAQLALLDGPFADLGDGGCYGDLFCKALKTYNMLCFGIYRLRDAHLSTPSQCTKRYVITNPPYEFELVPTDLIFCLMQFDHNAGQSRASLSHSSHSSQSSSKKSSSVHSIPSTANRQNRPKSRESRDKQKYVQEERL

For the compound `O=C1CCc2cc(OCCCCc3nnnn3C3CCCCC3)ccc2N1` [cilostazol, 6-[4-(1-cyclohexyl-1H-tetrazol-5-yl)butoxy]-3,4-dihydro-carbostyril], the “TNF-α-stimulated increased PTEN phosphorylation level” value with PTEN was “concentration-dependently suppressed”. In addition, the “Maxi-K channel-mediated currents in co-existence of glibenclamide” value on Maxi-K channels (cilostazol applied about 20 minutes after glibenclamide) is on record as “increase in maxi-K channel-medicated currents was given”. Further, the “whole-cell calcium activated K+ current” value at Maxi-K channels (cilostazol applied to the bath alone) is given as “significantly increased”. The “K+ current when added together with iberiotoxin” value at Maxi-K channels (cilostazol together with iberiotoxin, compared with iberiotoxin alone) is “increase of the current was rather less than iberiotoxin alone”.

Consider `COc1ccc(Cl)cc1C(=O)NCCc1ccc(S(=O)(=O)NC(=O)NC2CCCCC2)cc1` [glibenclamide, 5-chloro-N-[2-[4-[[[(cyclohexyl-amino)carbonyl]amino]sulfonyl]phenyl]ethyl]-2-methoxy-benzamide], for which the “block of the cilostazol-increased K+ current” value on Maxi-K channels (glibenclamide 10 μM added to the bath) is given as “not”. Further, the “Maxi-K channel-mediated currents, blocker alone” value on Maxi-K channels (glibenclamide alone) is “could not increase”.

As for iberiotoxin, on Maxi-K channels (iberiotoxin 100 nM added to the bath), the “block of the cilostazol-increased K+ current” value is “reversibly blocked”.

For the origin of these results see US8653104B2, “PTEN inhibitor or Maxi-K channels opener” (Otsuka Pharmaceuticals Co., Ltd., priority 2003, dated 2014).
